Reference: US11826373B2, “Methods for treatment of diseases” (Galera Labs, LLC, priority 2011, dated 2023)

Assay: Activity toward hydrogen peroxide
Type: biochemical

## [Cl][Mn-5]1234([Cl])[n+]5c6cccc5C[NH+]1[C@H]1CCCC[C@@H]1[NH+]2CC[NH+]3[C@H]1CCCC[C@@H]1[NH+]4C6 (stereo partly shown) [GC4419]
  activity toward hydrogen peroxide: no detectable activity
